Laboratory results reported in US8497278B2, “Imidazo[1,2-a]pyridine compounds” (priority 2008, dated 2013).

Columns and labels:
[1] = test system: central benzodiazepine receptors; test: Central benzodiazepine receptor binding (test of Speth et al.); settings: 1000 nM of the compound
In short: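 Values are percent inhibition of central benzodiazepine receptor binding at 1000 nM compound (initial single-point screen at 1.0E-09, 1.0E-07 and 1.0E-05 M). Speth et al. binding test; nonspecific binding defined with excess unlabelled ligand and subtracted from total.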

[2] = target: T1, α1 subtype containing GABA-A receptors (Homo sapiens, UniProt P14867+P18507); test: Two-electrode voltage clamp electrophysiology in Xenopus oocytes, potentiation of GABA EC20 response, α1; format: cell-based; settings: 100 nM compound; for activation at 0.1 µM: read-out: Percentage of potentiation alpha1
T1 construct: expressed in transfected cells; host or cells: Xenopus laevis oocytes, cRNA injected
T1 sequence (P14867 28-456): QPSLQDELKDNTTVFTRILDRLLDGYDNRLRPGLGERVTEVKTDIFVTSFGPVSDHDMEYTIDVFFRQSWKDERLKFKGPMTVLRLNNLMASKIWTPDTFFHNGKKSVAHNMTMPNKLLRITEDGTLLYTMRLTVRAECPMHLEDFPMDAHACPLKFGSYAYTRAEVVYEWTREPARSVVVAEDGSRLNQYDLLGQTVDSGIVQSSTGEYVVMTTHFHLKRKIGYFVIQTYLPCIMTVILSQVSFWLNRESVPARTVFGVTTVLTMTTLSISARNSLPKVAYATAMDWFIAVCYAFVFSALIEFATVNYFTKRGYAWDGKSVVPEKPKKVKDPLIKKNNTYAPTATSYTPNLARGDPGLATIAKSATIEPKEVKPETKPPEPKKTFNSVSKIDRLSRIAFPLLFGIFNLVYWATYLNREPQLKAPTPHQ
T1 sequence (P28472 26-473 partner): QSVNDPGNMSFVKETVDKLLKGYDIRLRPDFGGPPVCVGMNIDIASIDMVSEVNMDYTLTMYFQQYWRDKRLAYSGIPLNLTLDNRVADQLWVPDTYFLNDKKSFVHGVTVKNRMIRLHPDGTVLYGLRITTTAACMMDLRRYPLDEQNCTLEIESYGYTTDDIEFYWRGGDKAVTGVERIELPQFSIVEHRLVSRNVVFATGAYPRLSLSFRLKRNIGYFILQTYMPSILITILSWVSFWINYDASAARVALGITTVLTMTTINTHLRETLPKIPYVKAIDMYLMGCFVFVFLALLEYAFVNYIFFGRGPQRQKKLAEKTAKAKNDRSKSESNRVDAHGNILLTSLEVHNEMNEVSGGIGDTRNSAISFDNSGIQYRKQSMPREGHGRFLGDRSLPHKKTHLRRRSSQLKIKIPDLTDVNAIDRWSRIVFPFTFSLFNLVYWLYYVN
T1 sequence (P18507 40-475): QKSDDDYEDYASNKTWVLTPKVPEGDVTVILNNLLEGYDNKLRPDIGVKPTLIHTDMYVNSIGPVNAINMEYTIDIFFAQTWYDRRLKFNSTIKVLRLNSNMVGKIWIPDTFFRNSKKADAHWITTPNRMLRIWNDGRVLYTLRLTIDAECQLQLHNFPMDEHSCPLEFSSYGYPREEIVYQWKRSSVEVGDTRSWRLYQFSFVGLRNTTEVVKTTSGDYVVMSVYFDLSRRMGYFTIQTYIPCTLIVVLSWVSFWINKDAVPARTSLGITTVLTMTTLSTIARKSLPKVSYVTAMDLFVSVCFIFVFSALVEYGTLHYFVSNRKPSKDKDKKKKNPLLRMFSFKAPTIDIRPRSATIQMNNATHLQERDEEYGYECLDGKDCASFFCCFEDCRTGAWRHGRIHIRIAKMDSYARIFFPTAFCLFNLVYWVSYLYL
In short: (§1)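 Test compounds (100 nM) were assessed for enhancement of a 60 μM (EC20) GABA current in two-electrode-clamped oocytes (−80 mV, ND96 pH 7.5) injected with human αx (1, 2, 3 or 5), β3 and γ2L cRNA. Each oocyte received a 1 μM chlordiazepoxide standard first and was excluded if expression or γ2L incorporation was insufficient.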

[3] = target: T2, α2 subtype containing GABA-A receptors (Homo sapiens, UniProt P18507+P47869); test: Two-electrode voltage clamp electrophysiology in Xenopus oocytes, potentiation of GABA EC20 response, α2; format: cell-based; settings: 100 nM compound; for activation at 0.1 µM: read-out: Percentage of potentiation alpha2
T2 construct: expressed in transfected cells; host or cells: Xenopus laevis oocytes, cRNA injected
T2 sequence (P47869 29-451): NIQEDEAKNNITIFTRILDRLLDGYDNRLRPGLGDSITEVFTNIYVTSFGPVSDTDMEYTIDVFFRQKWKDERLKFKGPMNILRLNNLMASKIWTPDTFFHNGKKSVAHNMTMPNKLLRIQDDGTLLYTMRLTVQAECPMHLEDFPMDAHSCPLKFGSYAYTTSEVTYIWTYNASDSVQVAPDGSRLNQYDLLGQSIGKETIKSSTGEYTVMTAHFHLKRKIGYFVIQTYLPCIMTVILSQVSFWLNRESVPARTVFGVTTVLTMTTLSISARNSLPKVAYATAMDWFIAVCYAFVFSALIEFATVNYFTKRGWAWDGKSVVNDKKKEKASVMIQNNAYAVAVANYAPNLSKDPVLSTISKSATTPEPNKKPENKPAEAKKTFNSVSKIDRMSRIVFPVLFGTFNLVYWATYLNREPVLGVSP
T2 sequence (P28472 26-473 partner): as the sequence (P28472 26-473 partner) above
T2 sequence (P18507 40-475): as the sequence (P18507 40-475) above
In short: as §1

O=C1CCN1Cc1c(-c2ccccc2)nc2ccc(Cl)cn12 [Compound 115, 1-(6-Chloro-2-phenyl-imidazo[1,2-a]pyridin-3-ylmethyl)-azetidin-2-one]
% Inhibition at 1000 nM for CBZD [1]: ++ (percentage of inhibition of central BZD site binding is greater than 80% in the presence of 1000 nM of the compound) | activation at 0.1 µM [2]: 10 to 50% | activation at 0.1 µM [3]: 10 to 50%

O=c1nc(-n2cncn2)ccn1Cc1c(-c2ccc(Cl)cc2)nc2ccccn12 [Compound 138, 1-((2-(4-chlorophenyl)imidazo[1,2-a]pyridin-3-yl)methyl)-4-(1H-1,2,4-triazol-1-yl)pyrimidin-2(1H)-one]
% Inhibition at 1000 nM for CBZD [1]: ++ (percentage of inhibition of central BZD site binding is greater than 80% in the presence of 1000 nM of the compound) | activation at 0.1 µM [2]: 10 to 50% | activation at 0.1 µM [3]: 10 to 50%

COc1ccc(NCc2c(-c3ccccc3)nc3ccc(Cl)cn23)nn1 [Compound 165, N-((6-chloro-2-phenylimidazo[1,2-a]pyridin-3-yl)methyl)-6-methoxypyridazin-3-amine]
% Inhibition at 1000 nM for CBZD [1]: ++ (percentage of inhibition of central BZD site binding is greater than 80% in the presence of 1000 nM of the compound) | activation at 0.1 µM [2]: 10 to 50% | activation at 0.1 µM [3]: 10 to 50%

Cc1cccn(Cc2c(-c3ccc(Cl)cc3)nc3ccc(F)cn23)c1=O [Compound 121, 1-((2-(4-chlorophenyl)-6-fluoroimidazo[1,2-a]pyridin-3-yl)methyl)-3-methylpyridin-2(1H)-one]
% Inhibition at 1000 nM for CBZD [1]: ++ (percentage of inhibition of central BZD site binding is greater than 80% in the presence of 1000 nM of the compound) | activation at 0.1 µM [2]: ≥ 50% | activation at 0.1 µM [3]: ≥ 50%

Cc1nnc(Cc2c(-c3ccc(Cl)cc3)nc3ccccn23)o1 [Compound 204, 2-((2-(4-chlorophenyl)imidazo[1,2-a]pyridin-3-yl)methyl)-5-methyl-1,3,4-oxadiazole]
% Inhibition at 1000 nM for CBZD [1]: ++ (percentage of inhibition of central BZD site binding is greater than 80% in the presence of 1000 nM of the compound) | activation at 0.1 µM [2]: -10 to 10% | activation at 0.1 µM [3]: 10 to 50%

Cn1ccnc1Cc1c(-c2ccc(Cl)cc2)nc2ccccn12 [Compound 206, 2-(4-chlorophenyl)-3-((1-methyl-1H-imidazol-2-yl)methyl)imidazo[1,2-a]pyridine]
% Inhibition at 1000 nM for CBZD [1]: ++ (percentage of inhibition of central BZD site binding is greater than 80% in the presence of 1000 nM of the compound) | activation at 0.1 µM [2]: ≥ 50% | activation at 0.1 µM [3]: ≥ 50%

Clc1ccc2nc(-c3ccccc3)c(Cn3nnc4ccccc43)n2c1 [Compound 46, 1-((6-chloro-2-phenylH-imidazo[1,2-a]pyridin-3-yl)methyl)-1H-benzo[d][1,2,3]triazole]
% Inhibition at 1000 nM for CBZD [1]: ++ (percentage of inhibition of central BZD site binding is greater than 80% in the presence of 1000 nM of the compound) | Percentage of potentiation alpha1 [2]: + (percentage of potentiation is greater than or equal to 10% but less than 50% in the presence of 100 nM of the compound) | Percentage of potentiation alpha2 [3]: 0 (percentage of potentiation is between about 10% to about −10%)

CCc1nccn1Cc1c(-c2ccc(C)cc2)nc2ccc(C)cn12 [Compound 4, 3-((2-Ethyl-1H-imidazol-1-yl)methyl)-6-methyl-2-p-tolylH-imidazo[1,2-a]pyridine]
% Inhibition at 1000 nM for CBZD [1]: ++ (percentage of inhibition of central BZD site binding is greater than 80% in the presence of 1000 nM of the compound) | Percentage of potentiation alpha1 [2]: + (percentage of potentiation is greater than or equal to 10% but less than 50% in the presence of 100 nM of the compound) | Percentage of potentiation alpha2 [3]: 0 (percentage of potentiation is between about 10% to about −10%)

CN(C)CCNC(=O)c1nccn1Cc1c(-c2ccc(Cl)cc2)nc2ccccn12 [Compound 78, 1-((2-(4-chlorophenyl)H-imidazo[1,2-a]pyridin-3-yl)methyl)-N-(2-(dimethylamino)ethyl)-1H-imidazole-2-carboxamide]
% Inhibition at 1000 nM for CBZD [1]: ++ (percentage of inhibition of central BZD site binding is greater than 80% in the presence of 1000 nM of the compound) | Percentage of potentiation alpha1 [2]: + (percentage of potentiation is greater than or equal to 10% but less than 50% in the presence of 100 nM of the compound) | Percentage of potentiation alpha2 [3]: + (percentage of potentiation is greater than or equal to 10% but less than 50% in the presence of 100 nM of the compound)

CCOc1ccn(Cc2c(-c3ccc(Cl)cc3)nc3ccccn23)c(=O)n1 [Compound 137, 1-((2-(4-chlorophenyl)imidazo[1,2-a]pyridin-3-yl)methyl)-4-ethoxypyrimidin-2(1H)-one]
% Inhibition at 1000 nM for CBZD [1]: ++ (percentage of inhibition of central BZD site binding is greater than 80% in the presence of 1000 nM of the compound) | activation at 0.1 µM [2]: 10 to 50% | activation at 0.1 µM [3]: 10 to 50%

Fc1ccc(-c2nc3ccc(Cl)cn3c2CNc2nccc(CN3CCCC3)n2)cc1 [Compound 198, N-((6-chloro-2-(4-fluorophenyl)imidazo[1,2-a]pyridin-3-yl)methyl)-4-(pyrrolidin-1-ylmethyl)pyrimidin-2-amine]
% Inhibition at 1000 nM for CBZD [1]: ++ (percentage of inhibition of central BZD site binding is greater than 80% in the presence of 1000 nM of the compound) | activation at 0.1 µM [2]: ≥ 50% | activation at 0.1 µM [3]: ≥ 50%

CN(C)CCNC1=CC(=O)N(Cc2c(-c3ccc(Cl)cc3)nc3ccccn23)C1 [Compound 237, 1-((2-(4-chlorophenyl)imidazo[1,2-a]pyridin-3-yl)methyl)-4-(2-(dimethylamino)ethylamino)-1H-pyrrol-2(5H)-one]
% Inhibition at 1000 nM for CBZD [1]: ++ (percentage of inhibition of central BZD site binding is greater than 80% in the presence of 1000 nM of the compound) | activation at 0.1 µM [2]: -10 to 10% | activation at 0.1 µM [3]: 10 to 50%

Clc1ccc(-c2nc3ccc(Cl)cn3c2Cn2ccnn2)cc1 [Compound 19, 3-((1H-1,2,3-triazol-1-yl)methyl)-6-chloro-2-(4-chlorophenyl)H-imidazo[1,2-a]pyridine]
% Inhibition at 1000 nM for CBZD [1]: ++ (percentage of inhibition of central BZD site binding is greater than 80% in the presence of 1000 nM of the compound) | Percentage of potentiation alpha1 [2]: + (percentage of potentiation is greater than or equal to 10% but less than 50% in the presence of 100 nM of the compound) | Percentage of potentiation alpha2 [3]: + (percentage of potentiation is greater than or equal to 10% but less than 50% in the presence of 100 nM of the compound)

CN1CC[C@H](Oc2ccnc(NCc3c(-c4ccc(F)cc4)nc4ccc(Cl)cn34)n2)C1 [Compound 184, (S)—N-((6-chloro-2-(4-fluorophenyl)imidazo[1,2-a]pyridin-3-yl)methyl)-4-(1-methylpyrrolidin-3-yloxy)pyrimidin-2-amine]
% Inhibition at 1000 nM for CBZD [1]: ++ (percentage of inhibition of central BZD site binding is greater than 80% in the presence of 1000 nM of the compound) | activation at 0.1 µM [2]: 10 to 50% | activation at 0.1 µM [3]: 10 to 50%

OC1CCN(c2ccnc(NCc3c(-c4ccc(F)cc4)nc4ccc(Cl)cn34)n2)C1 (stereo not drawn) [Compound 189, 1-(2-((6-chloro-2-(4-fluorophenyl)imidazo[1,2-a]pyridin-3-yl)methylamino)pyrimidin-4-yl)pyrrolidin-3-ol]
% Inhibition at 1000 nM for CBZD [1]: ++ (percentage of inhibition of central BZD site binding is greater than 80% in the presence of 1000 nM of the compound) | activation at 0.1 µM [2]: ≥ 50% | activation at 0.1 µM [3]: ≥ 50%
